Measured values published in patent US7491835B2, “Prodrugs of amino acids with affinity for the α2δ-protein” (Pfizer Inc, priority 2003, dated 2009).

Columns and labels:
Caco-2 cells = assay: Caco-2 cell transport and efflux (permeability) study
Description: (§1) Mannitol was used as a negative marker since it appears to be absorbed through the paracellular rather than the transcellular pathway. Cell transport, and efflux studies were conducted with Caco-2 cells grown on Snapwells between 22 to 28 days postseeding. Typically, 10 mM MES buffer (pH 6.5) with 5 mM KCl, 135 mM NaCl, 1.8 mM CaCl2, and 5 mM D-glucose was used for the AP side and 10 mM MOPS (pH 7.4) with 5 mM KCl, 132.5 mM NaCl, 1.8 mM CaCl2, and 5 mM D-glucose was used for the BL side. After washing the monolayers, drug-free media at the appropriate pH (pH 7.4 or 6.5) were first added to both compartments to allow the cells to equilibrate for approximately 15 min at 37° C. Transport studies were then conducted using 1.5 mL of transport media in the apical side and 2.5 mL in the basolateral side. The donor solution containing the probe compound was added to either the apical or basolateral compartment. Plates were placed in a shaking incubator (Boekel Scientific, Feasterville, Pa.) at 37° C. during the experiments. Transport in both apical-to-basolateral (A-to-B) and basolateral-to-apical (B-to-A) directions was measured for each drug. Aliquots were removed from the nondosing compartment at predetermined time points and replaced with fresh medium to maintain a constant volume. During studies with radiolabeled compounds, 100 uL samples were taken at each time point. The apparent permeability coefficients (Papp) were calculated using the following equation: Papp=dQ/dtX1/CoX1/A, where dQ/dt is the permeability rate, Co is the initial concentration in the donor compartment, and A is the surface area of the membrane. Flux rates (dQ/dt×1/A) were calculated by plotting the amount transported per unit area as a function of time and determining the slope of the line using linear regression.

[1] = Vogel conflict model of anxiety; assay type: in vivo; conditions: 30 mg/kg, PO
Excerpt: The In vivo activity of compounds of this invention can be determined in animal models of hyperalgesia (See Sluka, K., et al. 2001, “Unilateral Intramuscular Injections Of Acidic Saline Produce A Bilateral, Long-Lasting Hyperalgesia”, Muscle Nerve 24: 37-46; Dixon, W., 1980, “Efficient analysis of experimental observations”. Ann Rev Pharmacol Toxicol 20:441-462; Randall L. O. and Selitto J. J., “A Method For Measurement Of Analgesic Activity On Inflamed Tissue,” Arch. Int. Pharmacodyn, 1957;4:409-419; Hargreaves K., Dubner R., Brown F., Flores C., and Joris J. “A New And Sensitive Method For Measuring Thermal Nociception In Cutaneous Hyperalgesia”. Pain. 32:77-88, 1988.), anxiety (Vogel J. R., Beer B., and Clody D. E., “A Simple And Reliable Conflict Procedure For Testing Anti-Anxiety Agents”, Psychopharmacologia 21:1-7, 1971),
The In vivo activity of a compound of this invention was determined in an animal model of anxiety as set forth in Vogel J R, Beer B., and Clody D E, “A Simple And Reliable Conflict Procedure For Testing Anti-Anxiety Agents”, Psychopharmacologia 21:1-7, 1971).

in vitro = conditions: human, Caco-2
Description: as §1

Which Substrate for efflux (Caco-2 cells; Caco-2, 10 uM, concluded from ratio B to A/A to B) does the source give for `CCCC[C@@H](C)C[C@H](CNC(=O)[C@@H](N)CC(C)C)CC(=O)O` [3S-[(2S-Amino-4-methyl-pentanoylamino)-methyl]-5R-methyl-nonanoic acid] here?
Its Substrate for efflux is “unlikely to be a substrate for efflux”.

And the “A to B Peff * 10^−6” value (Caco-2 cells; Caco-2, apical to basal, apical pH 6.5, basolateral pH 7.4, 37° C.)?
Its value is 0.74 10^−6.

What about the “Caco-2 permeability, apical to basolateral direction” value (Caco-2 cells; concentration of 10 uM) of the same compound?
The value was 0.74 ×10⁻⁶ cm/s.

Which “Anxiolytic Activity, percent reference activity compared to pregabalin” value [1] does the source give for `CCC[C@@H](C)C[C@H](CNC(=O)[C@@H](N)CC(C)C)CC(=O)O` [3S-[(2S-Amino-4-methyl-pentanoylamino)-methyl]-5R-methyl-octanoic acid] here?
The value was 138.10%.

With `OC[C@@H](O)[C@@H](O)[C@H](O)[C@H](O)CO` [Mannitol] as the compound, how does the Papp A→B (in vitro) read?
The Papp A→B was 1.81 ×10⁻⁶ cm/s.

And the Papp B→A (in vitro)?
Its Papp B→A is 1.41 ×10⁻⁶ cm/s.

And the efflux ratio (in vitro)?
The efflux ratio was 0.78.

For `COCCc1ccc(OCC(O)CNC(C)C)cc1` (stereo not drawn) [Metoprolol], which Papp A→B (in vitro) is on record?
The Papp A→B was 8.74 ×10⁻⁶ cm/s.

And the Papp B→A (in vitro)?
Its Papp B→A is 20.3 ×10⁻⁶ cm/s.
